What was measured:
Test in all cases: relative viability (nuclei count vs DMSO), 5 days (fraction); higher = more cells survive
HCC-366 = test system: HCC-366
How it was run: (§1)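 Each reported value is a median over duplicate plates. It expresses relative viability: treated-well nuclei count divided by vehicle-well nuclei count. Lung cancer cell lines in 1536-well plates were dosed by pin tool a day after seeding, alone with one drug or with a fixed anchor-drug dose plus five library-drug doses (not always all listed) in √10 steps, and nuclei were counted after 5 days.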

EKVX = test system: EKVX
How it was run: as §1

NCI-H2342 = test system: NCI-H2342
How it was run: as §1

HARA = test system: HARA
How it was run: as §1

SK-MES-1 = test system: SK-MES-1
How it was run: as §1

NCI-H661 = test system: NCI-H661
How it was run: as §1

NCI-H1437 = test system: NCI-H1437
How it was run: as §1

SK-LU-1 = test system: SK-LU-1
How it was run: as §1

NCI-H522 = test system: NCI-H522
How it was run: as §1

NCI-H2087 = test system: NCI-H2087
How it was run: as §1

NCI-H1993 = test system: NCI-H1993
How it was run: as §1

COc1cc2nccc(Oc3ccc(NC(=O)Nc4cc(C)on4)c(Cl)c3)c2cc1OC [Tivozanib] + O=C(CCCCCCC(=O)Nc1ccccc1)NO [Vorinostat] (partner 1 µM)
relative viability (HCC-366; first compound 0.05 µM): 0.312
relative viability (HCC-366; first compound 0.1581 µM): 0.305
relative viability (HCC-366; first compound 0.5 µM): 0.244
relative viability (EKVX; first compound 0.005 µM): 0.787
relative viability (EKVX; first compound 0.01581 µM): 0.684
relative viability (EKVX; first compound 0.05 µM): 0.803
relative viability (EKVX; first compound 0.5 µM): 0.765
relative viability (NCI-H2342; first compound 0.005 µM): 0.783
relative viability (NCI-H2342; first compound 0.01581 µM): 0.668
relative viability (NCI-H2342; first compound 0.05 µM): 0.719
relative viability (NCI-H2342; first compound 0.5 µM): 0.811
relative viability (HARA; first compound 0.005 µM): 0.422
relative viability (HARA; first compound 0.01581 µM): 0.456
relative viability (HARA; first compound 0.05 µM): 0.594
relative viability (HARA; first compound 0.1581 µM): 0.563
relative viability (HARA; first compound 0.5 µM): 0.507
relative viability (SK-MES-1; first compound 0.005 µM): 1.03
relative viability (SK-MES-1; first compound 0.01581 µM): 1.07
relative viability (SK-MES-1; first compound 0.05 µM): 1.13
relative viability (SK-MES-1; first compound 0.1581 µM): 1.07
relative viability (SK-MES-1; first compound 0.5 µM): 0.996
relative viability (NCI-H661; first compound 0.005 µM): 0.782
relative viability (NCI-H661; first compound 0.01581 µM): 0.776
relative viability (NCI-H661; first compound 0.05 µM): 0.789
relative viability (NCI-H661; first compound 0.1581 µM): 0.8
relative viability (NCI-H661; first compound 0.5 µM): 0.802
relative viability (NCI-H1437; first compound 0.005 µM): 0.769
relative viability (NCI-H1437; first compound 0.01581 µM): 0.876
relative viability (NCI-H1437; first compound 0.05 µM): 0.815
relative viability (NCI-H1437; first compound 0.1581 µM): 0.746
relative viability (NCI-H1437; first compound 0.5 µM): 0.712
relative viability (SK-LU-1; first compound 0.005 µM): 0.796
relative viability (SK-LU-1; first compound 0.01581 µM): 0.838
relative viability (SK-LU-1; first compound 0.05 µM): 0.707
relative viability (SK-LU-1; first compound 0.1581 µM): 0.6
relative viability (SK-LU-1; first compound 0.5 µM): 0.729
relative viability (NCI-H522; first compound 0.005 µM): 1
relative viability (NCI-H522; first compound 0.01581 µM): 1
relative viability (NCI-H522; first compound 0.05 µM): 0.822
relative viability (NCI-H522; first compound 0.1581 µM): 0.721
relative viability (NCI-H522; first compound 0.5 µM): 0.809
relative viability (NCI-H2087; first compound 0.005 µM): 0.917
relative viability (NCI-H2087; first compound 0.01581 µM): 0.685
relative viability (NCI-H2087; first compound 0.05 µM): 0.663
relative viability (NCI-H2087; first compound 0.1581 µM): 0.698
relative viability (NCI-H2087; first compound 0.5 µM): 0.428
relative viability (NCI-H1993; first compound 0.005 µM): 0.692
relative viability (NCI-H1993; first compound 0.01581 µM): 0.579
relative viability (NCI-H1993; first compound 0.05 µM): 0.965
relative viability (NCI-H1993; first compound 0.1581 µM): 0.618
relative viability (NCI-H1993; first compound 0.5 µM): 0.585
